{"source": "patent US20170064953A1", "about": "“HERBICIDAL COMPOSITIONS CONTAINING 4-AMINO-3-CHLORO-6-(4-CHLORO-2-FLUORO-3-METHOXYPHENYL) PYRIDINE-2-CARBOXYLIC ACID OR A DERIVATIVE THEREOF, A TRIAZOLOPYRIMIDINE SULFONAMIDE HERBICIDE OR A DERIVATIVE THEREOF, AND GLYPHOSATE OR A DERIVATIVE THEREOF” (Dow AgroSciences LLC, priority 2015, published 2017)", "assay_in_all_cases": "Field trial, postemergence herbicidal activity, foliar applied, visual rating", "format_in_all_cases": "in vivo", "key": {"[1]": {"test_system": "Commelina benghalensis (hairy wandering Jew, COMBE)", "conditions": "35DAA, 960 g ai/ha", "protocol": "(§1) Treatments consisted of the methyl ester of 4-amino-3-chloro-6-(4-chloro-2-fluoro-3-methoxyphenyl)pyridine-2-carboxylic acid (Cmpd 1) and diclosulam in combination as GF-3220. […] Glyphosate dimethylammonium salt was applied as various commercial formulations containing 480 grams acid equivalent per liter (g ae/L).\n(§2) Field trials were conducted under standard field conditions. Plot sizes varied from 3-4 meters (m) wide by 5-10 m long. Treatments were applied with small plot backpack sprayers, using pressurized carbon dioxide (CO2) as propellant. Pressure varied from 30-50 pounds per square inch (PSI), with spray tips typically of a Flat Fan type applying water diluent at 100-150 liters per hectare (L/ha). Boom sizes varied from 3-4 m in width. Weed sizes varied, but all treatments were applied as post-emergence treatments to weeds from 2 leaf to 2 tiller growth stages varying from 2-15 inches in height. No additional adjuvant was mixed with the treatments applied in the field.\n(§3) The weed spectrum included, but was not limited to, Commelina benghalensis (hairy wandering Jew, COMBE), Echinochloa crus-galli (barnyardgrass, ECHCG), Euphorbia heterophylla (wild poinsettia, EPHHL), Conyza bonariensis (hairy fleabane, ERIBO), Conyza canadensis (horseweed, ERICA), Conyza sumatrensis (Guernsey fleabane, ERISU) and Ipomoea grandifolia (Corda-de-viola, IAQGR).\n(§4) The values reported are percent (%) control visually rated. The predicted percent (%) weed control was determined using Colby's equation."}, "[2]": {"test_system": "Conyza bonariensis (hairy fleabane, ERIBO)", "conditions": "960 g ai/ha", "protocol": "as §1, §2, §3, §4"}, "[3]": {"test_system": "Conyza canadensis (horseweed, ERICA)", "conditions": "1200 g ai/ha", "protocol": "as §1, §2, §3, §4"}, "[4]": {"test_system": "Conyza sumatrensis (Guernsey fleabane, ERISU)", "conditions": "1200 g ai/ha", "protocol": "as §1, §2, §3, §4"}, "[5]": {"test_system": "Echinochloa crus-galli (barnyardgrass, ECHCG)", "conditions": "1200 g ai/ha", "protocol": "as §1, §2, §3, §4"}, "[6]": {"test_system": "Euphorbia heterophylla (wild poinsettia, EPHHL)", "conditions": "960 g ai/ha", "protocol": "as §1, §2, §3, §4"}, "[7]": {"test_system": "Ipomoea grandifolia (Corda-de-viola, IAQGR)", "conditions": "960 g ai/ha", "protocol": "as §1, §2, §3, §4"}}, "note": "Values joined by “and” are separate entries in the source; they are usually repeats but may differ in a detail not shown here. Identical values can stand only once. Counter-ions that a name gives are not always drawn."}
{"smiles": "O=C(O)CNCP(=O)(O)O", "note": "[Glyphosate DMA salt, N-(phosphonomethyl)glycine]", "values": [{"measurement": "Mean % weed control", "setting": "[1]", "result": 62.0, "unit": "%"}, {"measurement": "Mean % weed control", "setting": "[2]; 9DAA", "result": "11.7% and 10.0%"}, {"measurement": "Mean % weed control", "setting": "[2]; 12DAA", "result": 43.3, "unit": "%"}, {"measurement": "Mean % weed control", "setting": "[2]; 14DAA", "result": "40.0% and 36.7% and 23.3%"}, {"measurement": "Mean % weed control", "setting": "[2]; 15DAA", "result": 48.3, "unit": "%"}, {"measurement": "Mean % weed control", "setting": "[2]; 23DAA", "result": 31.7, "unit": "%"}, {"measurement": "Mean % weed control", "setting": "[2]; 35DAA", "result": 25.0, "unit": "%"}, {"measurement": "Mean % weed control", "setting": "[2]; 40DAA", "result": 46.7, "unit": "%"}, {"measurement": "Mean % weed control", "setting": "[2]; 54DAA", "result": 23.3, "unit": "%"}, {"measurement": "Mean % weed control", "setting": "[2]; 67DAA", "result": 20.0, "unit": "%"}, {"measurement": "Mean % weed control", "setting": "[3]; 30DAA", "result": 28.8, "unit": "%"}, {"measurement": "Mean % weed control", "setting": "[3]; 32DAA", "result": 32.5, "unit": "%"}, {"measurement": "Mean % weed control", "setting": "[3]; 46DAA", "result": 25.0, "unit": "%"}, {"measurement": "Mean % weed control", "setting": "[3]; 47DAA", "result": 28.8, "unit": "%"}, {"measurement": "Mean % weed control", "setting": "[3]; 62DAA", "result": 20.0, "unit": "%"}, {"measurement": "Mean % weed control", "setting": "[4]; 19DAA", "result": 19.0, "unit": "%"}, {"measurement": "Mean % weed control", "setting": "[4]; 29DAA", "result": 17.0, "unit": "%"}, {"measurement": "Mean % weed control", "setting": "[4]; 46DAA", "result": 15.7, "unit": "%"}, {"measurement": "Mean % weed control", "setting": "[5]; 18DAA", "result": 16.7, "unit": "%"}, {"measurement": "Mean % weed control", "setting": "[5]; 38DAA", "result": 16.7, "unit": "%"}, {"measurement": "Mean % weed control", "setting": "[6]; 7DAA", "result": 38.8, "unit": "%"}, {"measurement": "Mean % weed control", "setting": "[6]; 14DAA", "result": 52.5, "unit": "%"}, {"measurement": "Mean % weed control", "setting": "[6]; 28DAA", "result": 18.8, "unit": "%"}, {"measurement": "Mean % weed control", "setting": "[6]; 35DAA", "result": 7.5, "unit": "%"}, {"measurement": "Mean % weed control", "setting": "[7]; 14DAA", "result": 40.0, "unit": "%"}, {"measurement": "Mean % weed control", "setting": "[7]; 19DAA", "result": 43.8, "unit": "%"}, {"measurement": "Mean % weed control", "setting": "[7]; 28DAA", "result": 45.0, "unit": "%"}, {"measurement": "Mean % weed control", "setting": "[7]; 35DAA", "result": 53.8, "unit": "%"}, {"measurement": "Mean % weed control", "setting": "[7]; 42DAA", "result": 48.8, "unit": "%"}]}
